Read-outs that look alike come from different tables or passages of the source.

The text below walks through data of publication PMC8370991, “Structural basis for the inhibition of HTLV-1 integration inferred from cryo-EM deltaretroviral intasome structures” (Nature Communications, 2021).

For test [1], the system named is HTLV-1. Kind of test: MT-2-Jurkat cell-to-cell HTLV-1 infection, proviral load by qPCR. Type of test: cell-based. The method, then:
Six of the most promising compounds were selected for assessment of their efficacy in inhibiting HTLV-1 viral infection. To this end, we employed an MT-2-Jurkat co-culture relying on cell-to-cell-based HTLV-1 transmission, which we successfully used in a previous study. In this assay format, the infection of Jurkat cells is measured via real-time quantitative PCR (qPCR) determination of the proviral load (PVL). […] A block in the integration reaction was confirmed by Alu-qPCR experiments (Supplementary Fig. 6). […] We suspect this is owing to a more efficient uptake of BIC than RAL by Jurkat T cells.
MT-2 and E6.1 Jurkat T-cell lines (ATCC) were used for the experiments. The cells were cultured at 37 °C with 5% CO2 and maintained in Roswell Park Memorial Institute (RPMI) media supplemented with 10% fetal bovine serum (FBS), 100 U penicillin, 100 μg/mL streptomycin and 0.25 μg/mL fungizone.
(§1) The HTLV-1 cell-to-cell infection was performed as previously described; Jurkat T cells were counted and diluted in complete RPMI to a final concentration of 0.25 × 10^6 cells/ml and pre-treated with INSTI drugs (final concentration ranging from 0.2 pM to 2 μM) or DMSO as a control for 24 h. MT-2 cells were resuspended in RPMI at a concentration of 2 × 10^6 cells/ml and subjected to a nonlethal γ-radiation dose of 400 Gy. Cells were resuspended at a concentration of 2 × 10^6 cells/ml in serum-free RPMI supplemented with the corresponding INSTI drug. Co-culture of 0.5 × 10^6 for each cell line was carried out for 16 h, after which cells were washed in PBS and resuspended in 1 ml of depletion buffer (PBS, 0.1% FBS and 2 mM EGTA). MT-2 cells were depleted from the culture by means of anti-CD25 magnetic beads (DynabeadsTM CD25, Thermo Fisher). Depletion efficiency was confirmed via flow cytometry as described previously. Jurkat cells were cultured for 2 weeks in complete RPMI supplemented with the drugs and genomic DNA was extracted (DNeasy kit, Qiagen) and stored at −20 °C for subsequent analysis. All the experiments were done in triplicate.
(§2) The PVL was measured as previously described[9],[53],[54]. Jurkat genomic DNA was quantified and diluted to a concentration of 5 ng/μL. Real-time qPCR analysis were conducted on 20 ng of gDNA to measure the level of HTLV-1 tax and gapdh genes (Supplementary Table 5). For the standard curve, the gDNA from an HTLV-1 naturally infected T-cell clone (clone 11.50, courtesy of professor Charles Bangham), which has one copy of tax and two of gapdh, was used. The integrated provirus copy number was calculated as follows: (tax copy numbers)/(2×gapdh copy number)[53], and normalised to the DMSO-treated control which was set to 100%. The PVL data were fitted to a dose–response curve in Prism 7 and the EC50 was calculated. Alu-PCR was performed as previously described in ref. [55]. In brief, the first PCR reaction was done with Phusion polymerase starting from 80 ng of gDNA using the ALU-specific primers (Alu-F/Gag-R). The nested PCR was run diluting the amplificated product 1:50. The reaction was done as a qPCR using Gag-specific primers (Gag-R/Gag-F) and the Luna SYBR dye reaction mix (New England Biolabs). The integrated provirus copy numbers were normalised to GAPDH and Jurkat cells treated with DMSO and infected with HTLV-1 were set to 100%. Experiments were done in triplicate.
In general terms: In qPCR the cycle at which signal appears reflects the starting amount.

The test system of test [2] is HTLV-1. Kind of test: Alu-qPCR of integrated provirus in HTLV-1 infected Jurkat cells. Type of test: cell-based. The note with it: normalized to GAPDH. The method, then:
as §1
as §2, with “triplicate. […]” for “triplicate.”
Supplementary Figure 6 | Integrated provirus was quantified by Alu-qPCR.
Values were normalized to GAPDH. Uninfected represents uninfected Jurkat cells, acting as negative control. Condition without any drug present (DMSO) was set as 100%. Mean values and standard deviations are shown for n = three biologically independent experiments. P-values were calculated with respect to the DMSO control using the unpaired t-test with Welch’s correction in Prism 9. P-values are two-sided.

Where [3] appears, read: HTLV-1 infection of Jurkat T cells.
Where [4] appears, read: MT-2-Jurkat cell-to-cell infection, proviral load, n = 3, read-out: HTLV-1 EC50 ± stdev.
The mark [5] stands for this setting: Replicate 1, read-out: HTLV-1 infection EC50.
[6] abbreviates: Replicate 2, read-out: HTLV-1 infection EC50.
Setting [7] is: Replicate 3, read-out: HTLV-1 infection EC50.

The term EC50 denotes the concentration at which the effect is half-maximal. Regarding `Nc1c(C(=O)NCc2ccc(F)cc2F)c(=O)n(O)c2ncc(CCS(=O)(=O)c3ccccc3)cc12` [XZ446, 4-amino-N-(2,4-difluorobenzyl)-1-hydroxy-2-oxo-6-(2-(phenylsulfonyl)ethyl)-1,2-dihydro-1,8-naphthyridine-3-carboxamide], in the test on HTLV-1 [1] (setting [3]), the “improvement in EC50 compared with RAL” value was ~2.5- to fivefold and two- to fivefold. Besides, the EC50 in the test with HTLV-1 [1] (setting [4]) is 2.57 ± 0.81 nM; with HTLV-1 [1] (setting [5]), 3.46 nM; with HTLV-1 [1] (setting [6]), 2.16 nM; in the test with HTLV-1 [1] (setting [7]), 1.94 nM. Moreover, the “Integrated provirus by Alu-qPCR (DMSO = 100%)” value with HTLV-1 [2] (Replicate 1) was found to be 13.9354%; in the test with HTLV-1 [2] (Replicate 2), 1.128%; in the test on HTLV-1 [2] (Replicate 3) it was 3.891%.
Turning to `CC(C)n1c(C(=O)N(C)C)c2c(c(O)c1=O)C(=O)N(Cc1ccc(F)c(Cl)c1)CC2` [XZ236, 6-(3-chloro-4-fluorobenzyl)-4-hydroxy-2-isopropyl-N,N-dimethyl-3,5-dioxo-2,3,5,6,7,8-hexahydro-2,6-naphthyridine-1-carboxamide, reference compound], the EC50 is 3.74 ± 1.42 nM with HTLV-1 [1] (setting [4]), 5.38 nM in the test with HTLV-1 [1] (setting [5]), 1.48 nM with HTLV-1 [1] (setting [6]) and 4.41 nM in the test on HTLV-1 [1] (setting [7]). Moreover, the entries for the “Integrated provirus by Alu-qPCR (DMSO = 100%)” value with HTLV-1 [2] (Replicate 1), in the test with HTLV-1 [2] (Replicate 2) and with HTLV-1 [2] (Replicate 3) were 4.2364%, 4.296% and 2.243%, respectively.
`Nc1c(C(=O)NCc2ccc(F)cc2F)c(=O)n(O)c2ncc(CCCO)cc12` [XZ423, 4-amino-N-(2,4-difluorobenzyl)-1-hydroxy-6-(3-hydroxypropyl)-2-oxo-1,2-dihydro-1,8-naphthyridine-3-carboxamide]: the EC50 is 4.11 ± 1.52 nM in the test with HTLV-1 [1] (setting [4]), 3.95 nM in the test on HTLV-1 [1] (setting [5]), 3.49 nM with HTLV-1 [1] (setting [6]) and 1.75 nM with HTLV-1 [1] (setting [7]). The “Integrated provirus by Alu-qPCR (DMSO = 100%)” value in the test on HTLV-1 [2] (Replicate 1) worked out at 2.519%; in the test on HTLV-1 [2] (Replicate 2), 0.166%; in the test with HTLV-1 [2] (Replicate 3), 0.06882%.
Turning to `CN(C)C(=O)CCc1cnc2c(c1)c(N)c(C(=O)NCc1ccc(F)cc1F)c(=O)n2O` [XZ450, 4-amino-N-(2,4-difluorobenzyl)-6-(3-(dimethylamino)-3-oxopropyl)-1-hydroxy-2-oxo-1,2-dihydro-1,8-naphthyridine-3-carboxamide], in the test with HTLV-1 [1] (setting [3]), the “improvement in EC50 compared with RAL” value was ~2.5- to fivefold and two- to fivefold. For the same molecule, the EC50 is 1.67 ± 1.52 nM in the test on HTLV-1 [1] (Primate T-lymphotropic virus 1, read-out: HTLV-1 EC50 ± stdev, MT-2-Jurkat cell-to-cell infection, proviral load, n = 3); 2.34 nM in the test on HTLV-1 [1] (Primate T-lymphotropic virus 1, read-out: HTLV-1 infection EC50, Replicate 1); 1.89 nM in the test with HTLV-1 [1] (Primate T-lymphotropic virus 1, read-out: HTLV-1 infection EC50, Replicate 2); 1.25 nM in the test on HTLV-1 [1] (Primate T-lymphotropic virus 1, read-out: HTLV-1 infection EC50, Replicate 3). Further, the “Integrated provirus by Alu-qPCR (DMSO = 100%)” value in the test with HTLV-1 [2] (Replicate 1) is 0.2536%; in the test on HTLV-1 [2] (Replicate 2), 0.5264%; in the test on HTLV-1 [2] (Replicate 3), 0.2229%.
Turning to `Nc1c(C(=O)NCc2ccc(F)cc2F)c(=O)n(O)c2ncc(CCC(=O)NCCO)cc12` [XZ448, 4-amino-N-(2,4-difluorobenzyl)-1-hydroxy-6-(3-((2-hydroxyethyl)amino)-3-oxopropyl)-2-oxo-1,2-dihydro-1,8-naphthyridine-3-carboxamide], the “lower activity in blocking HTLV-1 infection compared with RAL” value in the test with HTLV-1 [1] (setting [3]) was ~ 20 fold. For the same molecule, the EC50 in the test with HTLV-1 [1] (setting [4]) amounted to 139 ± 81 nM; in the test with HTLV-1 [1] (setting [5]), 125 nM; in the test on HTLV-1 [1] (setting [6]) it was 146 nM; in the test with HTLV-1 [1] (setting [7]) it was 116 nM. Besides, the “Integrated provirus by Alu-qPCR (DMSO = 100%)” value with HTLV-1 [2] (Replicate 1) worked out at 25.215%; in the test on HTLV-1 [2] (Replicate 2), 64.5778%; with HTLV-1 [2] (Replicate 3) it was 27.0471%.
